Reference: PMC4605392 (The international journal of biochemistry & cell biology, 2010)
“And” between values parts separate entries of the source, which are not always exact repeats. Identical values can stand only once. Counter-ions that a name gives are not always drawn. Like-named read-outs stand apart in the source and are kept apart here.

Legend:
[1] = molecular target: human α4β2 AChR (Homo sapiens, UniProt P17787+P43681); assay: cell-based; assay type: cell-based
[2] = molecular target: [^3H]imipramine binding sites at the human α4β2 AChR (Homo sapiens, UniProt P17787+P43681); settings: for ΔG^20: calculated from Ki, Eq. (4), 293 K
[3] = ref Nangia et al., 1996; cited from earlier work
[4] = therapeutic doses, ref Glotzbach and Preskorn, 1982; cited from earlier work
[5] = molecular target: T1, hα4β2 AChR (Homo sapiens, UniProt P17787+P43681); assay type: binding; settings: for koff: 20 °C; for kon: kon = koff·Ka
[6] = molecular target: T1, hα4β2 AChR; assay: Thermodynamic parameters of imipramine binding; settings: for Ea (dissociation process): Arrhenius plot; for ΔH°: van't Hoff plot; for ΔG^20: Eq. (8); for ΔH^+ (enthalpy change of the transition state): Eq. (10)
[7] = molecular target: T1, hα4β2 AChR; assay: Equilibrium binding of [3H]imipramine to HEK293-hα4β2 AChR membranes
[8] = desensitized state, presence of 1 μM (−)-cytisine
[9] = resting state, presence of k-BTx
[10] = Ki, resting state, absence of k-BTx (no ligand)
[11] = resting state, absence of k-BTx (no ligand)
[12] = resting state, absence of k-BTx
[13] = Epibatidine treated column (desensitized state)
[14] = κ-BTx treated column (resting state)

CNC1(C)C2CCC(C2)C1(C)C (racemic) [(±)-Mecamylamine, (±)-mecamylamine hydrochloride]
IC50 [1]: 3 ± 0.7 µM
nH (Hill coefficient) [1]: 1.17 ± 0.12
IC50 ([2]; IC50, desensitized state, presence of 1 μM (−)-cytisine): 209 ± 34 µM
IC50 ([2]; IC50, resting state, presence of k-BTx): 135 ± 19 µM
inhibition of specific [3H]imipramine binding ([2]; at maximum concentration tested, resting and desensitized states): ~ 70%
nH (Hill coefficient) [2, 8]: 0.58 ± 0.06
nH (Hill coefficient) [2, 9]: 0.53 ± 0.05
pKa [3]: 11.4

Clc1ccc(C2CC3CCC2N3)cn1 (racemic) [(±)-epibatidine, (±)-Epibatidine]
nH (Hill coefficient) ([1]; activation of hα4β2 AChR, Ca2+ influx in HEK293-hα4β2 cells): 1.03 ± 0.04

CN(C)CCC=C1c2ccccc2CCc2ccccc21 [Amitriptyline, amitriptyline hydrochloride]
IC50 [1]: 2.2 ± 0.6 µM
nH (Hill coefficient) [1]: 1.50 ± 0.08
concentration in the rat brain [4]: 1000 to 10000 nM
Ki [2, 10]: 1.1 ± 0.1 µM
nH (Hill coefficient) [2, 11]: 0.98 ± 0.11
ΔG^20 [2, 12]: -7.96 ± 0.072 kcal/mol

CN(C)CCC=C1c2ccccc2COc2ccccc21 [Doxepin, doxepin hydrochloride]
IC50 [1]: 6.8 ± 1.6 µM
nH (Hill coefficient) [1]: 1.32 ± 0.29
Ki [2]: 2.1 ± 0.2 µM
nH (Hill coefficient) [2, 11]: 0.73 ± 0.05
ΔG^20 [2, 12]: -7.6 ± 0.072 kcal/mol

CN(C)CCCN1c2ccccc2CCc2ccccc21 [Imipramine, Imipramine hydrochloride]
IC50 [1]: 5.4 ± 1.2 µM
nH (Hill coefficient) [1]: 1.39 ± 0.13
Ka [5, 13]: 2.52 ± 0.08 µM⁻¹
koff [5, 13]: 0.076 ± 0.002 s⁻¹
ΔG^20 ([5]; Epibatidine treated column (desensitized state), Eq. (4)): -8.58 ± 0.024 kcal/mol
kon [5, 13]: 192000 ± 3000 M⁻¹ s⁻¹
Ka [5, 14]: 2.54 ± 0.07 µM⁻¹
koff [5, 14]: 0.09 ± 0.001 s⁻¹
kon [5, 14]: 229000 ± 8000 M⁻¹ s⁻¹
Ki ([2]; Ki, desensitized state, presence of 1 μM (−)-cytisine): 0.97 ± 0.1 µM
Ki [2, 10]: 1.1 ± 0.1 µM
Ki ([2]; Ki, resting state, presence of 0.1 μM k-BTx): 0.93 µM
nH (Hill coefficient) [2, 8]: 0.84 ± 0.07
ΔG^20 ([2]; desensitized state, presence of (−)-cytisine): -8.05 ± 0.048 kcal/mol
nH (Hill coefficient) [2, 11]: 0.73 ± 0.04
ΔG^20 [2, 12]: -7.98 ± 0.048 kcal/mol
nH (Hill coefficient) [2, 9]: 0.87 ± 0.07
−TΔS° [6, 13]: -5.93 kcal/mol and -5.93 ± 0.382 kcal/mol
Ea (dissociation process) [6, 13]: 2.96 ± 0.263 kcal/mol
ΔH° [6, 13]: -2.65 kcal/mol and -2.65 ± 0.382 kcal/mol
ΔG^20 [6, 13]: -8.58 ± 0.478 kcal/mol
ΔH^+ (enthalpy change of the transition state) [6, 13]: 2.37 ± 0.263 kcal/mol
−TΔS° [6, 14]: -3.85 ± 0.55 kcal/mol
Ea (dissociation process) [6, 14]: 4.54 ± 0.454 kcal/mol
ΔH° [6, 14]: -4.76 ± 0.55 kcal/mol
ΔG^20 [6, 14]: -8.56 ± 0.693 kcal/mol
ΔH^+ (enthalpy change of the transition state) [6, 14]: 3.97 ± 0.454 kcal/mol

[^3H]Imipramine
specific activity (Bmax, imipramine binding sites) ([7]; HEK293-hα4β2 membranes, x-intersect of Rosenthal-Scatchard plot): 8.6 ± 0.5 pmol/mg protein
Kd ([7]; resting/no ligand state, Rosenthal-Scatchard plot, 2 h at RT): 0.83 ± 0.08 µM
